Laboratory results taken from PMC8134483 (Scientific Reports, 2021).
Like-named read-outs stand apart in the source and are kept apart here.

Key:
[1] = target: T1, hCB1R (Homo sapiens, UniProt P21554); assay: biochemical; format: binding; conditions: for CB1R versus CB2R selectivity, receptor affinity: CB1R vs CB2R [^3H]CP55,940 binding; for CB1R [^3H]CP55,940 Emin: bottom of the concentration–response curve, mean ± SEM
T1 construct: expressed in transfected cells; host or cells: CHO-K1

[2] = target: T1, hCB1R; assay: cell-based; format: cell-based; conditions: for EC50: CHO hCB1R, 10 µM FSK, 90 min, value with 95% CI, read-out: CB1R cAMP Inhibition EC50; for Emax: read-out: CB1R cAMP Inhibition Emax
[3] = target: T1, hCB1R; assay: cell-based; format: cell-based; conditions: for EC50: CHO hCB1R, 90 min, value with 95% CI, read-out: CB1R βarrestin2 recruitment EC50; for Emax: read-out: CB1R βarrestin2 recruitment Emax; for βarrestin2 recruitment to CB1R, activity in words: relative to CP55940
[4] = target: T2, hCB2R (Homo sapiens, UniProt P34972); assay: [^3H]CP55,940 competition (radioligand displacement) binding to CB2R; conditions: for CB2R [^3H]CP55,940 Emin: bottom of the concentration–response curve, mean ± SEM
T2 construct: host or cells: CHO-K1 (PathHunter)

[5] = target: T2, hCB2R; assay: HitHunter inhibition of FSK-stimulated cAMP, CB2R; format: cell-based
[6] = target: T2, hCB2R; assay: PathHunter βarrestin2 recruitment, CB2R; format: cell-based; conditions: for βarrestin2 recruitment to CB2R, activity in words: relative to CP55,940
[7] = target: T1, hCB1R; assay: CB1R bias analysis (operational model, cAMP inhibition vs βarrestin2); format: cell-based; conditions: for Observed CB1R bias in cell culture: cAMP inhibition vs βarrestin2
Protocol: (§1) Estimates of Ki, EC50, Emin, and Emax were determined using non-linear regression with variable slope (four parameters) (GraphPad, Prism, v. 8.0). […] One-way analysis of variance (ANOVA), followed by Tukey’s post-hoc test, was used for statistical analyses (p < 0.05 determined to be significant); and Bartlett’s test was used to confirm homogeneity of variance (GraphPad).

[8] = target: T2, hCB2R; assay: CB2R bias analysis (operational model, cAMP inhibition vs βarrestin2); format: cell-based; conditions: CP55,940 as reference agonist; >0 cAMP bias, <0 βarrestin2 bias
Protocol: as §1

[9] = test system: male C57Bl/6 mice; assay: Catalepsy, ring holding assay; format: in vivo; conditions: 0.1–10 mg/kg i.p.; 5 min; % MPE 60 s
Protocol: (§2) Adult male C57BL/6 mice aged 6–10 weeks (mean weight 24 ± 0.5 g) were purchased from Charles River Labs (Senneville, QC). Animals were group housed (three per cage) with ad libitum access to food, water, and environmental enrichment and maintained on a 12 h light/dark cycle. Mice were randomly assigned to receive i.p. injections of vehicle (1:1:18 ethanol:emulphor:saline) or 0.1–10 mg/kg SCRA (n ≥ 4 per group). All protocols have been described previously and were in accordance with the guidelines detailed by the Canadian Council on Animal Care and approved by the Animal Research Ethics Board and the Scientific Merit Review Committee for Animal Behaviour at the University of Saskatchewan. […]
(§3) Modified tetrad testing (catalepsy, body temperature, tail flick assay) was conducted according to previously described methods, which are summarized briefly here. […] Catalepsy was assessed in the ring holding assay 5 min following injection with mouse forepaws clasped to a 5 mm ring positioned 5 cm above the surface of the testing space. The length of time the ring was held was recorded (s) to a maximum time of 60 s (i.e. MPE = 60 s). Internal body temperature was measured 15 min after injection. Anti-nociception was determined by assessing tail flick latency 20 min after injection. […]

[10] = test system: male C57Bl/6 mice; assay: Internal body temperature; format: in vivo; conditions: 0.1–10 mg/kg i.p.; 15 min
Protocol: as §2, §3

[11] = test system: male C57Bl/6 mice; assay: Anti-nociception, tail flick assay; format: in vivo; conditions: 0.1–10 mg/kg i.p.; 20 min; 52 °C; % MPE 20 s
Protocol: as §2, §3

[12] = test system: male C57Bl/6 mice; assay: Elevated plus maze (EPM); format: in vivo; conditions: 1.0 mg/kg i.p., 30 min after treatment, 5 min trial; for EPM total arm entries: vs vehicle
Protocol: Adult male C57BL/6 mice aged 6–10 weeks (mean weight 24 ± 0.5 g) were purchased from Charles River Labs (Senneville, QC). Animals were group housed (three per cage) with ad libitum access to food, water, and environmental enrichment and maintained on a 12 h light/dark cycle. Mice were randomly assigned to receive i.p. injections of vehicle (1:1:18 ethanol:emulphor:saline) or 0.1–10 mg/kg SCRA (n ≥ 4 per group). All protocols have been described previously and were in accordance with the guidelines detailed by the Canadian Council on Animal Care and approved by the Animal Research Ethics Board and the Scientific Merit Review Committee for Animal Behaviour at the University of Saskatchewan. The following steps were taken to ensure our study was in keeping with the ARRIVE guidelines: (1) power analyses were conducted to determine the minimum number of animals required for the study; (2) animals were purchased—rather than bred—to limit animal waste; and (3) all assessments of animal behaviour were made by individuals blinded to the treatment group,[57].
EPM was conducted according to methods adapted from Marks et al.. The EPM was built from a plywood base painted blue with blue corrugated plastic floor and walls. The floor of the maze was composed of perpendicular interlocking arms (110 cm long × 10 cm wide) with two arms having 45 cm walls (closed arms) and two arms having no walls and a 0.5 cm edge (open arms), all elevated 45 cm from the ground. Trials began with the mouse in the central zone facing an open arm. Trials lasted 5 min and began 30 min after SCRA treatment. An arm entry was considered to be all four limbs leaving the central zone. Arm entries and the percent time spent in open versus closed arms were recorded by an observer blinded to the treatment group. Less time in the open arms and more time in the closed arms was used as a model of anxiogenic behaviour.

T1 sequence (P21554 whole entry): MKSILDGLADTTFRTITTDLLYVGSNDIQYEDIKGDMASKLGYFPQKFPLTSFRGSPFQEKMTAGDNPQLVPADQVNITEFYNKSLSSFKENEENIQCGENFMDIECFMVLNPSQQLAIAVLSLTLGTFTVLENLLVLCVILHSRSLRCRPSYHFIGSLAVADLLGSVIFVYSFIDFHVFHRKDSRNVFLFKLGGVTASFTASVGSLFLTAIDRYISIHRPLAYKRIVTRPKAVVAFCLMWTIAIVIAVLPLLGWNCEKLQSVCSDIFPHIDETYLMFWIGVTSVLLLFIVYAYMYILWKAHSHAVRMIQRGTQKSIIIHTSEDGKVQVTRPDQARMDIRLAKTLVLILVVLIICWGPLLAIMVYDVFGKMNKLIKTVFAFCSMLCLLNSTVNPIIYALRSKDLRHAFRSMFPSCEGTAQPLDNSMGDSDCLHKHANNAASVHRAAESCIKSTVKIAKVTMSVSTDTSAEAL
T2 sequence (P34972 whole entry): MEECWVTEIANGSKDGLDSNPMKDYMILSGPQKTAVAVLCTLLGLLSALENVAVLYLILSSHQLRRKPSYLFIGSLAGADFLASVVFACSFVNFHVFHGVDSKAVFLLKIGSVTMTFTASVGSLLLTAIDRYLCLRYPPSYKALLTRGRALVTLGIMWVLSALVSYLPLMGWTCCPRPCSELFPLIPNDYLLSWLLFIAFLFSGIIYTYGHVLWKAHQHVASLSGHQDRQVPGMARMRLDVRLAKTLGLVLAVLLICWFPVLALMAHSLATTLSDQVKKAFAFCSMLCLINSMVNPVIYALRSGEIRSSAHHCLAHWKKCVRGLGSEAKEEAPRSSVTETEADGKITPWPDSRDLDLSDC

Row | Structure (SMILES) | Ki [1] | CB1R versus CB2R selectivity, receptor affinity [1] | CB1R [^3H]CP55,940 Emin [1] | EC50 [2] | Emax [2] | EC50 [3] | Emax [3] | βarrestin2 recruitment to CB1R, activity in words [3] | Ki [4] | CB2R [^3H]CP55,940 Emin [4] | EC50 [5] | Emax [5] | EC50 [6] | Emax [6] | βarrestin2 recruitment to CB2R, activity in words [6] | Observed CB1R bias in cell culture [7] | CB2R bias between cAMP inhibition and βarrestin2 recruitment, ∆∆LogR (cAMP—βarr2), in words [8] | Catalepsy response [9] | Body temperature (hypothermia) response [10] | Anti-nociceptive response, tail flick [11] | also measured
1 | CC(C)CCn1cc(C(=O)c2ccc3ccccc3c2)c2ccccc21 [JWH 018 2'-naphthyl-N-(3-methylbutyl) isomer] | 0.93 nM | greater affinity at CB1R relative to CB2R | 9.6 ± 2.7% | 98 nM | 80 ± 9.1% | > 10000 nM | 4.9 ± 0.51% | Inactive at βarrestin2 | 7.5 nM | 54 ± 3.5 % | 0.52 nM | 110 ± 9.2% | > 10000 nM | 6.1 ± 1.3% | Inactive at βarrestin2 | G protein | obligate cAMP-biased ligands | partial agonist | did not change body temperature | full agonist | CB1R versus CB2R selectivity, cAMP inhibition potency ([2]; CB1R vs CB2R): more potent at CB2R relative to CB1R; βarrestin2 recruitment to CB2R, activity in words ([6]; listed as JWH 018 2′-napthyl-N-(3-methylbutyl) isomer): inactive in βarrestin2; EPM open arm entries [12]: increased open arm entry; EPM time in the open arms [12]: greater amount of time spent in the open arms; EPM total arm entries [12]: did not change total arm entries
2 | COC(=O)[C@@H](NC(=O)c1nn(CCCCF)c2ccccc12)C(C)(C)C [4-fluoro MDMB-BINACA] | 99 nM | greater affinity at CB2R relative to CB1R | 52 ± 7.5 % | 10 nM | 87 ± 5.6% | 88 nM | 240 ± 10% | greater potency and produced supramaximal EMax responses | 0.41 nM | 57 ± 11 % | 0.56 nM | 95 ± 11% | 120 nM | 130 ± 8.2% | greater potency and produced supramaximal EMax responses | βarrestin2 | significant bias toward the recruitment of βarrestin2 | full agonist | full agonist | full agonist | Affinity for CB2R compared with CP55,940, in words [4]: significantly greater affinity; CB1R bias between cAMP inhibition and βarrestin2 recruitment, ∆∆LogR (cAMP—βarr2), in words ([7]; CP55,940 as reference agonist, >0 cAMP bias, <0 βarrestin2 bias): significant bias toward the recruitment of βarrestin2; EPM time in the central quadrant [12]: majority of their time in the central quadrant immobile; EPM time in the open arms [12]: approximately the same amount of time in the open arm as vehicle-treated mice; EPM total arm entries [12]: reduced total arm entries
